Measurements as given in PubChem BioAssay AID2060492 (Molecular Pharmacology Branch, DTP, NCI, 2025).

Test system: 695427-040-R-J1-PDC complex spheroids, viability percent T/C
Experiment: Anticancer human tumor 695427-040-R-J1-PDC patient-derived colon adenocarcinoma cell line growth inhibition [GQUAD]
Settings: for IC50: curve of first compound; for viability, T/C: stronger effect = lower value
In short: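 Viability of tumor cells grown as complex spheroids with endothelial and stromal cells, exposed to drug combinations. Top concentration at or near clinical Cmax (else 10 microM), diluted in half-log increments.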

[1] = second compound 0.0316 µM, first compound 0.0316 µM
[2] = second compound 0.0316 µM, first compound 0.1 µM
[3] = second compound 0.0316 µM, first compound 0.316 µM
[4] = second compound 0.0316 µM, first compound 1 µM
[5] = second compound 0.0316 µM, first compound 3.16 µM
[6] = second compound 0.0316 µM, first compound 10 µM
[7] = second compound 0.1 µM, first compound 0.0316 µM
[8] = second compound 0.1 µM, first compound 0.1 µM
[9] = second compound 0.1 µM, first compound 0.316 µM
[10] = second compound 0.1 µM, first compound 1 µM
[11] = second compound 0.1 µM, first compound 3.16 µM
[12] = second compound 0.1 µM, first compound 10 µM
[13] = second compound 0.316 µM, first compound 0.0316 µM
[14] = second compound 0.316 µM, first compound 0.1 µM
[15] = second compound 0.316 µM, first compound 0.316 µM
[16] = second compound 0.316 µM, first compound 1 µM
[17] = second compound 0.316 µM, first compound 3.16 µM
[18] = second compound 0.316 µM, first compound 10 µM
[19] = second compound 1 µM, first compound 0.0316 µM
[20] = second compound 1 µM, first compound 0.1 µM
[21] = second compound 1 µM, first compound 0.316 µM
[22] = second compound 1 µM, first compound 1 µM
[23] = second compound 1 µM, first compound 3.16 µM
[24] = second compound 1 µM, first compound 10 µM
[25] = second compound 3.16 µM, first compound 0.0316 µM
[26] = second compound 3.16 µM, first compound 0.1 µM
[27] = second compound 3.16 µM, first compound 0.316 µM
[28] = second compound 3.16 µM, first compound 1 µM
[29] = second compound 3.16 µM, first compound 3.16 µM
[30] = second compound 3.16 µM, first compound 10 µM
[31] = second compound 10 µM, first compound 0.0316 µM
[32] = second compound 10 µM, first compound 0.1 µM
[33] = second compound 10 µM, first compound 0.316 µM
[34] = second compound 10 µM, first compound 1 µM
[35] = second compound 10 µM, first compound 3.16 µM
[36] = second compound 10 µM, first compound 10 µM
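Further: spheroids exposed to compounds for seven days before readout.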

C=CCn1c(=O)c2cnc(Nc3ccc(N4CCN(C)CC4)cc3)nc2n1-c1cccc(C(C)(C)O)n1 + Cc1[nH]c2ccc(F)cc2c1-c1nc2c3cccnc3c3ncccc3c2[nH]1
IC50 (second compound 0.0316 µM): 9.44 µM
IC50 (second compound 0.1 µM): 6.67 µM
IC50 (second compound 0.316 µM): 6.48 µM
IC50 (second compound 1 µM): 5.42 µM
IC50 (second compound 3.16 µM): 4.56 µM
IC50 (second compound 10 µM): 4.4 µM
viability, T/C [1]: 102%
viability, T/C [2]: 104%
viability, T/C [3]: 94.3%
viability, T/C [4]: 108%
viability, T/C [5]: 105%
viability, T/C [6]: 47.1%
viability, T/C [7]: 114%
viability, T/C [8]: 99.8%
viability, T/C [9]: 103%
viability, T/C [10]: 113%
viability, T/C [11]: 99.3%
viability, T/C [12]: 23%
viability, T/C [13]: 105%
viability, T/C [14]: 94.1%
viability, T/C [15]: 95.6%
viability, T/C [16]: 97.2%
viability, T/C [17]: 95.6%
viability, T/C [18]: 22.4%
viability, T/C [19]: 81.6%
viability, T/C [20]: 88.2%
viability, T/C [21]: 93.1%
viability, T/C [22]: 89.3%
viability, T/C [23]: 79.8%
viability, T/C [24]: 16%
viability, T/C [25]: 72%
viability, T/C [26]: 72%
viability, T/C [27]: 70.3%
viability, T/C [28]: 64.8%
viability, T/C [29]: 70.7%
viability, T/C [30]: 7.06%
viability, T/C [31]: 75.4%
viability, T/C [32]: 76.8%
viability, T/C [33]: 71.5%
viability, T/C [34]: 71.5%
viability, T/C [35]: 67.8%
viability, T/C [36]: 6.01%

CC(C)(O)C1CCC(Nc2ccc3ncc(-c4cccc(C(F)(F)F)c4)n3n2)CC1 (stereo not given) + Cc1[nH]c2ccc(F)cc2c1-c1nc2c3cccnc3c3ncccc3c2[nH]1
IC50 (second compound 0.0316 µM): > 10 µM
IC50 (second compound 0.1 µM): > 10 µM
IC50 (second compound 0.316 µM): > 10 µM
IC50 (second compound 1 µM): > 10 µM
IC50 (second compound 3.16 µM): > 10 µM
IC50 (second compound 10 µM): > 10 µM
viability, T/C [1]: 109%
viability, T/C [2]: 99.1%
viability, T/C [3]: 109%
viability, T/C [4]: 95.6%
viability, T/C [5]: 99.8%
viability, T/C [6]: 82.5%
viability, T/C [7]: 110%
viability, T/C [8]: 100%
viability, T/C [9]: 103%
viability, T/C [10]: 100%
viability, T/C [11]: 100%
viability, T/C [12]: 81.9%
viability, T/C [13]: 101%
viability, T/C [14]: 102%
viability, T/C [15]: 97.6%
viability, T/C [16]: 93.2%
viability, T/C [17]: 99.7%
viability, T/C [18]: 80.1%
viability, T/C [19]: 102%
viability, T/C [20]: 89.4%
viability, T/C [21]: 96.8%
viability, T/C [22]: 87.6%
viability, T/C [23]: 91.4%
viability, T/C [24]: 78%
viability, T/C [25]: 91.6%
viability, T/C [26]: 86.9%
viability, T/C [27]: 76.4%
viability, T/C [28]: 89.5%
viability, T/C [29]: 93.5%
viability, T/C [30]: 62.5%
viability, T/C [31]: 79%
viability, T/C [32]: 68.6%
viability, T/C [33]: 81.7%
viability, T/C [34]: 80.5%
viability, T/C [35]: 80%
viability, T/C [36]: 67.3%

COc1ncnc(C2CC2)c1-c1ncc2cnn(Cc3ccc(-c4nc(C(F)(F)F)cn4C(C)C)cc3)c2n1 + Cc1[nH]c2ccc(F)cc2c1-c1nc2c3cccnc3c3ncccc3c2[nH]1
IC50 (second compound 0.0316 µM): > 10 µM
IC50 (second compound 0.1 µM): > 10 µM
IC50 (second compound 0.316 µM): > 10 µM
IC50 (second compound 1 µM): > 10 µM
IC50 (second compound 3.16 µM): > 10 µM
IC50 (second compound 10 µM): > 10 µM
viability, T/C [1]: 98%
viability, T/C [2]: 96.7%
viability, T/C [3]: 92.9%
viability, T/C [4]: 106%
viability, T/C [5]: 112%
viability, T/C [6]: 70%
viability, T/C [7]: 107%
viability, T/C [8]: 93.9%
viability, T/C [9]: 98.5%
viability, T/C [10]: 98.4%
viability, T/C [11]: 100%
viability, T/C [12]: 71%
viability, T/C [13]: 99.5%
viability, T/C [14]: 91.9%
viability, T/C [15]: 94.6%
viability, T/C [16]: 106%
viability, T/C [17]: 105%
viability, T/C [18]: 65.6%
viability, T/C [19]: 91%
viability, T/C [20]: 86.3%
viability, T/C [21]: 101%
viability, T/C [22]: 96.3%
viability, T/C [23]: 94.1%
viability, T/C [24]: 67.8%
viability, T/C [25]: 76.5%
viability, T/C [26]: 77.5%
viability, T/C [27]: 73.3%
viability, T/C [28]: 80.1%
viability, T/C [29]: 98.4%
viability, T/C [30]: 66.5%
viability, T/C [31]: 82.2%
viability, T/C [32]: 73.5%
viability, T/C [33]: 83.1%
viability, T/C [34]: 81.8%
viability, T/C [35]: 95.4%
viability, T/C [36]: 73.8%

CC1COCCN1c1cc(C2(S(C)(=N)=O)CC2)nc(-c2ccnc3[nH]ccc23)n1 (stereo not given) + Cc1cnc(CNC(=O)c2c(=O)c3ccc(N4CCCN(C)CC4)nc3n3c2sc2ccccc23)cn1
IC50 (second compound 0.0316 µM): > 10 µM
IC50 (second compound 0.1 µM): > 10 µM
IC50 (second compound 0.316 µM): > 10 µM
IC50 (second compound 1 µM): > 10 µM
IC50 (second compound 3.16 µM): < 0.0316 µM
IC50 (second compound 10 µM): < 0.0316 µM
viability, T/C [1]: 95.6%
viability, T/C [2]: 93.5%
viability, T/C [3]: 95.3%
viability, T/C [4]: 94.2%
viability, T/C [5]: 74.8%
viability, T/C [6]: 66.2%
viability, T/C [7]: 85.2%
viability, T/C [8]: 79.1%
viability, T/C [9]: 89.3%
viability, T/C [10]: 64.4%
viability, T/C [11]: 74.2%
viability, T/C [12]: 55.4%
viability, T/C [13]: 76.8%
viability, T/C [14]: 71.5%
viability, T/C [15]: 77.5%
viability, T/C [16]: 66.1%
viability, T/C [17]: 77.9%
viability, T/C [18]: 50.4%
viability, T/C [19]: 51.8%
viability, T/C [20]: 66.6%
viability, T/C [21]: 59.7%
viability, T/C [22]: 66.7%
viability, T/C [23]: 62.7%
viability, T/C [24]: 47.3%
viability, T/C [25]: 33.4%
viability, T/C [26]: 58.1%
viability, T/C [27]: 53.2%
viability, T/C [28]: 49.4%
viability, T/C [29]: 51.5%
viability, T/C [30]: 36.9%
viability, T/C [31]: 33.8%
viability, T/C [32]: 36.5%
viability, T/C [33]: 41.7%
viability, T/C [34]: 39.1%
viability, T/C [35]: 44%
viability, T/C [36]: 25.5%

COc1ccc([C@@H](O)c2cc(-c3ncnc4cc(N5CCOCC5)ccc34)c(F)cc2Cl)nn1 + Cc1cnc(CNC(=O)c2c(=O)c3ccc(N4CCCN(C)CC4)nc3n3c2sc2ccccc23)cn1
IC50 (second compound 0.0316 µM): 2.95 µM
IC50 (second compound 0.1 µM): 3.68 µM
IC50 (second compound 0.316 µM): 2.08 µM
IC50 (second compound 1 µM): 2.33 µM
IC50 (second compound 3.16 µM): < 0.0316 µM
IC50 (second compound 10 µM): < 0.0316 µM
viability, T/C [1]: 93.2%
viability, T/C [2]: 101%
viability, T/C [3]: 85.6%
viability, T/C [4]: 64.3%
viability, T/C [5]: 53.1%
viability, T/C [6]: 31.2%
viability, T/C [7]: 91.5%
viability, T/C [8]: 103%
viability, T/C [9]: 80.5%
viability, T/C [10]: 66.5%
viability, T/C [11]: 55.7%
viability, T/C [12]: 36.3%
viability, T/C [13]: 72.6%
viability, T/C [14]: 79.3%
viability, T/C [15]: 69.8%
viability, T/C [16]: 56.1%
viability, T/C [17]: 47.5%
viability, T/C [18]: 35.2%
viability, T/C [19]: 58%
viability, T/C [20]: 69.4%
viability, T/C [21]: 60.9%
viability, T/C [22]: 52.2%
viability, T/C [23]: 49.6%
viability, T/C [24]: 32%
viability, T/C [25]: 41.5%
viability, T/C [26]: 46.3%
viability, T/C [27]: 42.7%
viability, T/C [28]: 46%
viability, T/C [29]: 39.5%
viability, T/C [30]: 21.9%
viability, T/C [31]: 36.8%
viability, T/C [32]: 39.6%
viability, T/C [33]: 36.3%
viability, T/C [34]: 33.6%
viability, T/C [35]: 20.2%
viability, T/C [36]: 5.79%
